{"source": "the NIST ThermoML archive (doi:10.1016/j.tca.2006.01.008)", "key": {"[1]": {"assay": "refractive index (Na D-line) (dimensionless); xn = mol fraction of the nth substance listed", "settings": "298.15 K, 101 kPa, Liquid, Standard Abbe refractometry"}, "[2]": {"assay": "xn = mol fraction of the nth substance listed", "settings": "298.15 K, 101 kPa, Liquid, Vibrating tube method"}, "[3]": {"assay": "refractive index (Na D-line) (dimensionless)", "settings": "298.15 K; 101.33 kPa; Liquid; Standard Abbe refractometry"}, "[4]": {"settings": "298.15 K; 101.33 kPa; Liquid; Vibrating tube method"}}, "note": "Numbers after ± are expanded uncertainties."}
{"smiles": "CC(C)=O", "note": "[acetone] + CCCCCC", "values": [{"measurement": "refractive index", "setting": "[1]; x1 = 0.0504", "value": "1.3709 ± 0.0004"}, {"measurement": "refractive index", "setting": "[1]; x1 = 0.0994", "value": "1.3699 ± 0.0004"}, {"measurement": "refractive index", "setting": "[1]; x1 = 0.1511", "value": "1.3688 ± 0.0004"}, {"measurement": "refractive index", "setting": "[1]; x1 = 0.1999", "value": "1.3679 ± 0.0004"}, {"measurement": "refractive index", "setting": "[1]; x1 = 0.2497", "value": "1.3668 ± 0.0004"}, {"measurement": "refractive index", "setting": "[1]; x1 = 0.3006", "value": "1.366 ± 0.0004"}, {"measurement": "refractive index", "setting": "[1]; x1 = 0.3518", "value": "1.3651 ± 0.0004"}, {"measurement": "refractive index", "setting": "[1]; x1 = 0.4006", "value": "1.3643 ± 0.0004"}, {"measurement": "refractive index", "setting": "[1]; x1 = 0.4476", "value": "1.3635 ± 0.0004"}, {"measurement": "refractive index", "setting": "[1]; x1 = 0.4995", "value": "1.3627 ± 0.0004"}, {"measurement": "refractive index", "setting": "[1]; x1 = 0.5498", "value": "1.3618 ± 0.0004"}, {"measurement": "refractive index", "setting": "[1]; x1 = 0.5976", "value": "1.3611 ± 0.0004"}, {"measurement": "refractive index", "setting": "[1]; x1 = 0.6479", "value": "1.3603 ± 0.0004"}, {"measurement": "refractive index", "setting": "[1]; x1 = 0.697", "value": "1.3595 ± 0.0004"}, {"measurement": "refractive index", "setting": "[1]; x1 = 0.7503", "value": "1.3587 ± 0.0004"}, {"measurement": "refractive index", "setting": "[1]; x1 = 0.7998", "value": "1.358 ± 0.0004"}, {"measurement": "refractive index", "setting": "[1]; x1 = 0.8499", "value": "1.3572 ± 0.0004"}, {"measurement": "refractive index", "setting": "[1]; x1 = 0.8979", "value": "1.3568 ± 0.0004"}, {"measurement": "refractive index", "setting": "[1]; x1 = 0.9507", "value": "1.3561 ± 0.0004"}, {"measurement": "mass density", "setting": "[2]; x1 = 0.0504", "value": "657.2 ± 0.3", "unit": "kg/m3"}, {"measurement": "mass density", "setting": "[2]; x1 = 0.0994", "value": "659.7 ± 0.3", "unit": "kg/m3"}, {"measurement": "mass density", "setting": "[2]; x1 = 0.1511", "value": "662.9 ± 0.3", "unit": "kg/m3"}, {"measurement": "mass density", "setting": "[2]; x1 = 0.1999", "value": "666.3 ± 0.3", "unit": "kg/m3"}, {"measurement": "mass density", "setting": "[2]; x1 = 0.2497", "value": "670.1 ± 0.3", "unit": "kg/m3"}, {"measurement": "mass density", "setting": "[2]; x1 = 0.3006", "value": "674.4 ± 0.3", "unit": "kg/m3"}, {"measurement": "mass density", "setting": "[2]; x1 = 0.3518", "value": "679 ± 0.3", "unit": "kg/m3"}, {"measurement": "mass density", "setting": "[2]; x1 = 0.4006", "value": "683.7 ± 0.3", "unit": "kg/m3"}, {"measurement": "mass density", "setting": "[2]; x1 = 0.4476", "value": "688.7 ± 0.3", "unit": "kg/m3"}, {"measurement": "mass density", "setting": "[2]; x1 = 0.4995", "value": "694.5 ± 0.3", "unit": "kg/m3"}, {"measurement": "mass density", "setting": "[2]; x1 = 0.5498", "value": "700.7 ± 0.3", "unit": "kg/m3"}, {"measurement": "mass density", "setting": "[2]; x1 = 0.5976", "value": "707 ± 0.3", "unit": "kg/m3"}, {"measurement": "mass density", "setting": "[2]; x1 = 0.6479", "value": "714.1 ± 0.3", "unit": "kg/m3"}, {"measurement": "mass density", "setting": "[2]; x1 = 0.697", "value": "721.7 ± 0.3", "unit": "kg/m3"}, {"measurement": "mass density", "setting": "[2]; x1 = 0.7503", "value": "730.5 ± 0.3", "unit": "kg/m3"}, {"measurement": "mass density", "setting": "[2]; x1 = 0.7998", "value": "739.4 ± 0.3", "unit": "kg/m3"}, {"measurement": "mass density", "setting": "[2]; x1 = 0.8499", "value": "749.1 ± 0.3", "unit": "kg/m3"}, {"measurement": "mass density", "setting": "[2]; x1 = 0.8979", "value": "759.3 ± 0.3", "unit": "kg/m3"}, {"measurement": "mass density", "setting": "[2]; x1 = 0.9507", "value": "771.7 ± 0.3", "unit": "kg/m3"}]}
{"smiles": "CC(C)=O", "note": "[acetone]", "values": [{"measurement": "refractive index", "setting": "[3]", "value": "1.356 ± 0.0004"}, {"measurement": "mass density", "setting": "[4]", "value": "784.9 ± 0.27", "unit": "kg/m3"}]}
{"smiles": "O", "note": "[water]", "values": [{"measurement": "refractive index", "setting": "[3]", "value": "1.3325 ± 0.0004"}]}
{"smiles": "CC(C)=O", "note": "[acetone] + O", "values": [{"measurement": "refractive index", "setting": "[1]; x1 = 0.0502", "value": "1.3422 ± 0.0004"}, {"measurement": "refractive index", "setting": "[1]; x1 = 0.0993", "value": "1.3499 ± 0.0004"}, {"measurement": "refractive index", "setting": "[1]; x1 = 0.1502", "value": "1.3549 ± 0.0004"}, {"measurement": "refractive index", "setting": "[1]; x1 = 0.1996", "value": "1.3583 ± 0.0004"}, {"measurement": "refractive index", "setting": "[1]; x1 = 0.2496", "value": "1.3604 ± 0.0004"}, {"measurement": "refractive index", "setting": "[1]; x1 = 0.3007", "value": "1.3616 ± 0.0004"}, {"measurement": "refractive index", "setting": "[1]; x1 = 0.3507", "value": "1.3621 ± 0.0004"}, {"measurement": "refractive index", "setting": "[1]; x1 = 0.4003", "value": "1.3623 ± 0.0004"}, {"measurement": "refractive index", "setting": "[1]; x1 = 0.4509", "value": "1.3621 ± 0.0004"}, {"measurement": "refractive index", "setting": "[1]; x1 = 0.4992", "value": "1.3618 ± 0.0004"}, {"measurement": "refractive index", "setting": "[1]; x1 = 0.5489", "value": "1.3614 ± 0.0004"}, {"measurement": "refractive index", "setting": "[1]; x1 = 0.599", "value": "1.3609 ± 0.0004"}, {"measurement": "refractive index", "setting": "[1]; x1 = 0.6506", "value": "1.3603 ± 0.0004"}, {"measurement": "refractive index", "setting": "[1]; x1 = 0.6996", "value": "1.3602 ± 0.0004"}, {"measurement": "refractive index", "setting": "[1]; x1 = 0.7014", "value": "1.3597 ± 0.0004"}, {"measurement": "refractive index", "setting": "[1]; x1 = 0.7467", "value": "1.3591 ± 0.0004"}, {"measurement": "refractive index", "setting": "[1]; x1 = 0.8011", "value": "1.3592 ± 0.0004"}, {"measurement": "refractive index", "setting": "[1]; x1 = 0.8015", "value": "1.3583 ± 0.0004"}, {"measurement": "refractive index", "setting": "[1]; x1 = 0.846", "value": "1.3577 ± 0.0004"}, {"measurement": "refractive index", "setting": "[1]; x1 = 0.8969", "value": "1.3569 ± 0.0004"}, {"measurement": "refractive index", "setting": "[1]; x1 = 0.9005", "value": "1.3572 ± 0.0004"}, {"measurement": "refractive index", "setting": "[1]; x1 = 0.9451", "value": "1.3564 ± 0.0004"}, {"measurement": "mass density", "setting": "[2]; x1 = 0.0502", "value": "977 ± 0.1", "unit": "kg/m3"}, {"measurement": "mass density", "setting": "[2]; x1 = 0.0993", "value": "959.3 ± 0.1", "unit": "kg/m3"}, {"measurement": "mass density", "setting": "[2]; x1 = 0.1502", "value": "942.2 ± 0.1", "unit": "kg/m3"}, {"measurement": "mass density", "setting": "[2]; x1 = 0.1996", "value": "926.6 ± 0.1", "unit": "kg/m3"}, {"measurement": "mass density", "setting": "[2]; x1 = 0.2496", "value": "911.8 ± 0.1", "unit": "kg/m3"}, {"measurement": "mass density", "setting": "[2]; x1 = 0.3007", "value": "897.6 ± 0.2", "unit": "kg/m3"}, {"measurement": "mass density", "setting": "[2]; x1 = 0.3507", "value": "884.8 ± 0.2", "unit": "kg/m3"}, {"measurement": "mass density", "setting": "[2]; x1 = 0.4003", "value": "873.1 ± 0.2", "unit": "kg/m3"}, {"measurement": "mass density", "setting": "[2]; x1 = 0.4509", "value": "862.1 ± 0.2", "unit": "kg/m3"}, {"measurement": "mass density", "setting": "[2]; x1 = 0.4992", "value": "852.5 ± 0.2", "unit": "kg/m3"}, {"measurement": "mass density", "setting": "[2]; x1 = 0.5489", "value": "843.5 ± 0.2", "unit": "kg/m3"}, {"measurement": "mass density", "setting": "[2]; x1 = 0.599", "value": "835 ± 0.2", "unit": "kg/m3"}, {"measurement": "mass density", "setting": "[2]; x1 = 0.6506", "value": "827 ± 0.2", "unit": "kg/m3"}, {"measurement": "mass density", "setting": "[2]; x1 = 0.6996", "value": "819.9 ± 0.2", "unit": "kg/m3"}, {"measurement": "mass density", "setting": "[2]; x1 = 0.7014", "value": "819.6 ± 0.2", "unit": "kg/m3"}, {"measurement": "mass density", "setting": "[2]; x1 = 0.7467", "value": "813.4 ± 0.2", "unit": "kg/m3"}, {"measurement": "mass density", "setting": "[2]; x1 = 0.8011", "value": "806.2 ± 0.2", "unit": "kg/m3"}, {"measurement": "mass density", "setting": "[2]; x1 = 0.8015", "value": "806.3 ± 0.2", "unit": "kg/m3"}, {"measurement": "mass density", "setting": "[2]; x1 = 0.846", "value": "800.8 ± 0.2", "unit": "kg/m3"}, {"measurement": "mass density", "setting": "[2]; x1 = 0.8969", "value": "794.9 ± 0.2", "unit": "kg/m3"}, {"measurement": "mass density", "setting": "[2]; x1 = 0.9005", "value": "794.5 ± 0.2", "unit": "kg/m3"}, {"measurement": "mass density", "setting": "[2]; x1 = 0.9451", "value": "789.9 ± 0.2", "unit": "kg/m3"}]}
{"smiles": "CCCCCC", "note": "[hexane]", "values": [{"measurement": "refractive index", "setting": "[3]", "value": "1.3724 ± 0.0004"}, {"measurement": "mass density", "setting": "[4]", "value": "655.1 ± 0.3", "unit": "kg/m3"}]}
